Test results as given in US20140072604A1, “Block Copolymer For Intraperitoneal Administration Containing Anti-Cancer Agent, Micelle Preparation Thereof, And Cancer Therapeutic Agent Comprising The Micelle Preparation As Active Ingredient” (priority 2009, published 2014).
Where a name gives a salt, the structure may show the parent alone.

Columns and labels:
Assay type in all cases: in vivo, BALB/c nude mouse
[1] = system: human ovarian cancer cell line ES-2; test: Life-prolonging effect in nude mouse model for peritoneal disseminated metastasis (ES-2), intraperitoneal administration; details: once three days after tumor transplantation, observed until 80 days
Procedure: Therapeutic effects on peritoneal disseminated metastasis were tested by using a mouse model for peritoneal disseminated metastasis. Specifically, the mouse model for peritoneal disseminated metastasis was prepared by intraperitoneal injection of human ovarian cancer cell line ES-2 (1.0×10^6 cells) to an 8-week old BALB/c nude mouse.
In order to estimate advantageous life-prolonging effects of the present micelle preparation having encapsulated paclitaxel, the model mice were divided into three groups, i.e., 8 mice per group. […] In addition, the drug dosage was determined by converting a clinical dosage for intravenous route (paclitaxel 210 mg/m^2 and paclitaxel micelle preparation: 150 mg/m^2) to those for a mouse using an AUC comparison. […]
1 ml of saline (Control group); 1 ml of saline containing 66.7 mg/kg of irinotecan hydrochloride (66.7 mg/kg CPT-11 administered group); and 1 ml of 5% glucose solution containing the micelle preparation containing 30 mg/kg of SN-38 (30 mg/kg SN-38 micelle administered group) were intraperitoneally administered to the mouse of each group, respectively. […] In addition, the drug dosage was determined as the one-third of the maximum amount allowed for intravenous route administration for a mouse. […]

[2] = system: human ovarian cancer cell line SHIN-3; test: Life-prolonging effect in nude mouse model for peritoneal disseminated metastasis (SHIN-3), intraperitoneal administration
Procedure: In order to estimate an effect of intraperitoneal administration of the micelle preparation having encapsulated paclitaxel, a mouse model for peritoneal disseminated metastasis was prepared by intraperitoneal injection of human ovarian cancer cell line SHIN-3 (1.0×10^7 cells) to an 8-week old BALB/c nude mouse. Three groups were created as following: 1 ml of saline (Control group, 18 mice); 1 ml of saline containing […] of paclitaxel (100 mg/kg PTX administered group, 8 mice); and 1 ml of 5% glucose solution containing the micelle preparation containing 50 mg/ml of encapsulated paclitaxel (50 mg/kg PTX micelle administered group, 8 mice) were intraperitoneally administered to the mouse of each group, respectively. The amounts of the ingredients were of by 20 g mouse body weight. The administrations were carried out once after one week of the tumor transplantations. The mice were observed until 120 days after the cell transplantation. The survival rates were recorded and the survival curves was plotted in FIG. 3.

[3] = system: human stomach cancer cell line MKN45-P; test: Life-prolonging effect in nude mouse model for peritoneal disseminated metastasis (MKN45-P), intraperitoneal administration; details: 50 mg/kg, once three days after tumor transplantation, observed until 60 days
Procedure: In order to estimate an effect of intraperitoneal administration of a micelle preparation having encapsulated paclitaxel, a mouse model for peritoneal disseminated metastasis was prepared by intraperitoneal injection of human stomach cancer cell line MKN45-P (1.0×10^6 cells) to an 8-week old BALB/c nude mouse. Three groups were created as following: 1 ml of saline (Control group, 8 mice); 1 ml of saline containing 50 mg/ml of paclitaxel (50 mg/kg PTX administered group, 8 mice); and 1 ml of 5% glucose solution containing the micelle preparation containing 25 mg/ml of encapsulated paclitaxel (25 mg/kg PTX micelle administered group, 8 mice) were intraperitoneally administered to the mouse of each group, respectively. The amounts of the ingredients were of by 25 g mouse body weight. The administrations were carried out once after three days of the tumor transplantation. The mice were observed until 60 days after the cell transplantation. The survival rates was recorded and the survival curves was plotted in FIG. 4.

Structure (SMILES) | 50% survival rate, day after transplantation ([1]; 66.7 mg/kg, Control Day 21) [days] | 50% survival rate, day after transplantation ([1]; 70 mg/kg, Control Day 17) [days] | toxic death ([2]; 100 mg/kg PTX administered group, 8 mice, once) | 50% survival rate, day after transplantation ([2]; 100 mg/kg, once one week after tumor transplantation, observed until 120 days) [days] | 50% survival rate, day after transplantation [3] [days]
CCc1c2c(nc3ccc(OC(=O)N4CCC(N5CCCCC5)CC4)cc13)-c1cc3c(c(=O)n1C2)COC(=O)[C@]3(O)CC [CPT-11, irinotecan hydrochloride] | 56 | – | – | – | –
CC(=O)O[C@H]1C(=O)[C@@]2(C)[C@H]([C@H](OC(=O)c3ccccc3)[C@]3(O)C[C@H](OC(=O)[C@H](O)[C@@H](NC(=O)c4ccccc4)c4ccccc4)C(C)=C1C3(C)C)[C@]1(OC(C)=O)CO[C@@H]1C[C@@H]2O [PTX, paclitaxel] | – | 44 | two cases of toxic death | 100 | 55
